Reference: PMC9503898, “Synthesis and Evaluation of Two Long-Acting SSTR2 Antagonists for Radionuclide Therapy of Neuroendocrine Tumors” (Pharmaceuticals, 2022)
Positions of bridges follow the written chain, without caps; N, C: chain ends. Non-standard residues stand in square brackets, D forms with d. Residues, ends and D or L forms follow the SMILES beside them. *: point of attachment. DOTA = O=C(O)CN1CCN(CC(=O)O)CCN(CC(=O)*)CCN(CC(=O)O)CC1; dPhe(4-NHCONH2) = NC(=O)Nc1ccc(C[C@@H](N)C(=O)O)cc1; Dihydroorotyl(S) = O=C1C[C@@H](C(=O)*)NC(=O)N1; Phe(4-Cl) = N[C@@H](Cc1ccc(Cl)cc1)C(=O)O; Phe(4-NH2) = Nc1ccc(C[C@H](N)C(=O)O)cc1

Experiments:
U2OS-SSTR2 cells = test: Uptake and internalization assay; format: cell-based, human; settings: 10^−9 M, 2 h, 37 °C, gamma counter
Description: Human osteosarcoma cells (U2OS) stably expressing the SSTR2 receptor were used in all in vitro cell assays. Cells were cultured in Dulbecco’s modified Eagle’s medium (DMEM) from Gibco (Paisley, UK) supplemented with 2 mM L-glutamine, 10% fetal bovine serum (FBS), 50 units/mL penicillin, and 50 μg/mL streptomycin (Sigma Aldrich; Haarlerbergweg, The Netherlands) and maintained at 37 °C and in a 5% CO2 humidified chamber. Passages were performed weekly using trypsin/EDTA (0.05%/0.02% w/v).
Cells were seeded in 6-well plates 48 h before the experiment (2 × 10^5 cells/well). […] After incubation, medium was removed, and cells were washed twice with PBS. The membrane-bound fraction was collected by incubating cells with an acid buffer (50 mM glycine, 100 mM sodium chloride (NaCl), pH 2.8) for 10 min at rt. Cells were lysed using 0.5 M NaOH for 10 min at rt to acquire the internalized fraction. Both fractions were counted in a γ-counter, and data were expressed as percentage of added dose.

[1] = tested on: H69 tumor tissues expressing SSTR2; test: Uptake and autoradiography of H69 tumor sections; format: binding, human; settings: 10^−9 M, 90 min, rt, 10 μm sections, phosphor screen 48 h
Description: Subcutaneous fresh frozen H69 tumor tissues were cut at 10 μm thickness and immediately mounted on Starfrost glass slides (Thermo Scientific; Bleiswijk, The Netherlands). Tissue sections were incubated with washing buffer (167 mM Tris-HCl, 5 mM MgCl2) containing 0.25% BSA for 10 min at rt to prevent nonspecific binding. […] Each slide was drained off and washed with PBS. Finally, the slides were exposed to super-resolution phosphor screens for 48 h and imaged with the Cyclone system (PerkinElmer; Waltham, MA, USA). Images were analyzed and quantified using the Optiquant software Version 5 (PerkinElmer; Waltham, MA, USA).

[2] = design: method as in PMID 29668724; settings: literature value; cited from earlier work
in vivo [3] = settings: mouse, iv, 20 MBq/0.5 nmol per animal, total radioactivity
in vivo [4] = settings: mouse, iv, 0.5 nmol, total radioactivity

## C[C@@H](O)[C@@H]1NC(=O)[C@H](CCCCN)NC(=O)[C@@H](Cc2ccc(NC(N)=O)cc2)NC(=O)[C@H](Cc2ccc(NC(=O)[C@@H]3CC(=O)NC(=O)N3)cc2)NC(=O)[C@H](NC(=O)[C@H](Cc2ccc(Cl)cc2)NC(=O)CN2CCN(CC(=O)O)CCN(CC(=O)O)CCN(CC(=O)O)CC2)CSSC[C@@H](C(=O)N[C@H](Cc2ccc(O)cc2)C(N)=O)NC1=O [[^177Lu]Lu-JR11, metal not drawn] ({DOTA}-[Phe(4-Cl)][dC][Phe(4-NH2)](Dihydroorotyl(S))[dPhe(4-NHCONH2)]KTC[dY]-NH2; disulfide 2-7; N-terminus and C-terminus assumed)
U2OS-SSTR2 cells
  Total uptake in U2OS-SSTR2 cells: 16.2 ± 3.0 % added dose
[1]
  Radioactive uptake in H69 tumor tissue sections (autoradiography): 930 ± 37 DLU/mm^2
[2]
  Log D7.4: −2.5 [18]
In vivo [3]
  tissue uptake per volume at 4 h: 4 ± 0.6 %ID/mL
  tissue uptake per volume at 24 h: 3.3 ± 0.7 %ID/mL
  tissue uptake per volume at 48 h: 2.1 ± 0.5 %ID/mL
  tissue uptake per volume at 72 h: 1.8 ± 0.4 %ID/mL
In vivo [4]
  tissue to tissue ratio at 4 h: 0.6 ± 0.05
  tissue to tissue ratio at 72 h: 1.2 ± 0.3
In vivo [4]; Bone Marrow uptake
  tissue uptake at 4 h: 1.1 ± 2 %ID/g
In vivo [4]; Intestine uptake
  tissue uptake at 4 h: 0.5 ± 0.1 %ID/g
In vivo [4]; Kidneys uptake
  tissue uptake at 4 h: 12.6 ± 1.2 %ID/g
  tissue uptake at 24 h: 8.6 ± 2.3 %ID/g
  tissue uptake at 48 h: 4.1 ± 0.2 %ID/g
  tissue uptake at 72 h: 3.4 ± 1.4 %ID/g
In vivo [4]; Liver uptake
  tissue uptake at 4 h: 0.5 %ID/g
  tissue uptake at 24 h: 0.3 %ID/g
In vivo [4]; Lung uptake
  tissue uptake at 4 h: 1.3 ± 0.3 %ID/g
  tissue uptake at 24 h: 0.4 %ID/g
In vivo [4]; Pancreas uptake
  tissue uptake at 4 h: 3.5 ± 0.4 %ID/g
  tissue uptake at 48 h: 0.6 ± 0.1 %ID/g
  tissue uptake at 72 h: 0.3 %ID/g
In vivo [4]; Skin uptake
  tissue uptake at 4 h: 0.3 ± 0.1 %ID/g
In vivo [4]; Spleen uptake
  tissue uptake at 4 h: 0.3 ± 0.1 %ID/g
In vivo [4]; Stomach uptake
  tissue uptake at 4 h: 1.7 ± 0.3 %ID/g
  tissue uptake at 24 h: 1.5 ± 1.2 %ID/g
  tissue uptake at 48 h: 0.6 ± 0.2 %ID/g
  tissue uptake at 72 h: 0.4 ± 0.1 %ID/g
In vivo [4]; Tumor uptake
  tissue uptake at 4 h: 8.4 ± 0.5 %ID/g
  tissue uptake at 24 h: 6.1 ± 0.5 %ID/g
  tissue uptake at 48 h: 4.6 ± 0.3 %ID/g
  tissue uptake at 72 h: 3.6 ± 0.4 %ID/g
